Legend:
paclitaxel-treated rats [1] = test: Paclitaxel-induced mechanical allodynia (von Frey test) after i.v. administration; assay type: in vivo, rat; conditions: single acute administration 1 mg/kg i.v., adult male Sprague Dawley rats, 0-75 min after injection (FIG. 1)
From the text: (§1) Each animal was placed in a chamber with a mesh metal floor covered by a plastic dome that enabled the animal to walk freely, but not to jump. The mechanical stimulus was then delivered in the mid-plantar skin of left hind paw using an electronic von Frey apparatus (37400 Dynamic Plantar Aesthesiometer, Ugo Basile, Comerio, Varese, Italy). The cut-off was set at 50 g, while the increasing force rate (ramp duration) was set at 20 s. In the single administration protocol, pain threshold measurements have been performed before (pre-dose) and at regular intervals after treatment. In the repeated treatment protocol, the pre-test value was measured 13 h after the last administration; afterward the animals received a new administration and measures were performed at the described times. Results are expressed in […] and represent the mean±S.E.M. of mechanical thresholds.
(§2) Paclitaxel (2 mg/kg i.p.) was administered on days 1, 3, 5 and 8. Test compounds were dissolved in saline and administered intravenously at the dose of 1 mg/kg to adult male Sprague-Dawley rats (Charles River, Italy, 220-250 g weight). Data were obtained at 0-75 minutes after injection and are expressed as the mean±s.e.m. of six animals. *P<0.05 and **<0.01 vs vehicle+paclitaxel treated rats; °P<0.05 and ^°°P<0.01 vs. NT24336 (R) treated group. […] *P<0.05 and **<0.01 vss vehicle+paclitaxel treated rats.

MIA-treated rats = test: MIA-induced knee osteoarthritis model, mechanical hyperalgesia after i.v. administration; assay type: in vivo, rat
From the text: (§3) Results are expressed as the minimum dose (via the indicated route) at which a statistically-significant difference is observed when compared to time-matched injured rats receiving a vehicle administration by the same route. An analysis of variance, ANOVA, followed by Fisher's protected least significant difference procedure for post hoc comparison, was used to verify significance between two means of hyperalgesic behavioral results from the Randall & Selitto apparatus paw pressure test (“anti-hyperalgesia”) or from the Von Frey test (“mechanical allodynia”) or from the Cold Plate test (“cold allodynia”). P values 0.05 were considered significant. This definition applies to any doses specified herein as inhibiting “in a statistically significant manner”.
(§4) Paw mechanical sensitivity was determined using a Randall & Selitto apparatus (Randall and Selitto, 1957) exerting a force that increases at constant rate (32 g/s). The stimulus causing paw withdrawal was evaluated before and at different times after treatment. Results represent the mean of mechanical thresholds for paw withdrawal expressed as grams. To avoid possible damage to the rat paw the maximum applied force was set at 240 g. In the single administration protocol, paw pressure tests were performed before (pre-dose) and at regular intervals after treatment.
A single intra-articular injection of sodium monoiodoacetate (MIA) was introduced into the knee joint of rats according to the method described by Fernihough J et al., 2004. Sodium monoiodoacetate (MIA) inhibits chondrocyte metabolism leading to cartilage degradation in form of osteoarthritic-like focal lesions in the cartilage associated with subchondral bone thickening 14 days after administration (Guingamp et al., 1997). This model therefore can easily and quickly reproduce osteoarthritic-like lesions and functional impairment in rats, similar to that observed in human disease (Guzman et al., 2003). After 7 days post-injection, the inflammatory component subsides and the remaining pain is considered neuropathic in nature. Briefly, rats were deeply anaesthetized with diethyl ether. Following abolition of the hind paw pinch withdrawal reflex, a 27-gauge needle was introduced into the joint cavity between the tibial plateau and femoral condyles. Once in place, 2 mg of MIA were diluted in a volume of […] of 1% CMC (carboxymethylcellulose in water, Sigma-Aldrich, Italy) and injected into one knee joint and the rat was allowed to recover for 14 days prior to pain assessment.

paclitaxel-treated rats [2] = test: Paclitaxel-induced peripheral sensory neuropathy model, hyperalgesia (paw pressure) after i.v. administration; assay type: in vivo, rat
From the text: as §3, §4, §2

CCI rats = test: Chronic constriction injury (CCI) model, mechanical allodynia after oral administration; assay type: in vivo, rat; conditions: p.o.
From the text: as §3, §1
To evaluate the effect of test compounds in comparison to vehicle or selected comparators on mechanical hyperalgesia, the chronic constriction injury models in rats, a widely accepted model of painful neuropathy (Wang and Wang, 2003) was chosen.
Neuropathy was induced according to the procedure described by Bennett and Xie ([…]). Briefly, rats were anaesthetized with chloral hydrate 400 mg/kg i.p. under aseptic conditions, the right common sciatic nerve was exposed at the level of the middle thigh by blunt dissection. Proximal to the trifurcation, the nerve was carefully freed from the surrounding connective tissue and four chromic cat gut ligatures (4-0, Ethicon, Norderstedt, Germany) were tied loosely around it with about 1 mm spacing. After hemostasis was confirmed, the incision was closed in layers. Then animals were allowed to recover from anesthesia and surgery and were kept one per cage with free access to water and standard laboratory chow. This procedure induces the appearance of hyperalgesia and allodynia in response to mechanical stimuli, which are evident 2-5 days after injury and reach their maximum severity in about 14 days.

vincristine-treated rats = test: Vincristine-induced peripheral sensory neuropathy model, hyperalgesia after oral administration; assay type: in vivo, rat; conditions: p.o.
From the text: as §3, §4

[3] = test system: streptozotocin-treated mice; test: Streptozotocin diabetic peripheral neuropathy model, thermal hyperalgesia after oral administration; assay type: in vivo, mouse; conditions: p.o.
From the text: as §3
Mice (=30 g) were injected intravenously in the tail with 200 mg/kg streptozotocin (Wako Pure Chemicals, Richmond, Va.) prepared in saline adjusted to pH 4.5 in 0.1 N citrate buffer. Age-matched non-diabetic control mice were injected with the vehicle alone. Streptozotocin solutions were freshly prepared due to the limited stability of the compound. Animals were kept in a group of four per cage with special care of food and water supplement. The bed of the cage was changed every day. […] The serum glucose level was measured by glucose oxidase method from blood samples obtained by tail vein pricking. […] Animals at 7 days post-streptozotocin treatment were used in the study. […] Injections were performed using a Hamilton microliter syringe fitted with a 26-gauge needle, according to the method of Haley and McCormick (1957). The site of injection was 2 mm caudal and 2 lateral to the bregma, and 3 mm in depth from the skull surface. The injection volume was 5 μl.

oxaliplatin-treated rats = test: Oxaliplatin-induced peripheral sensory neuropathy model, hyperalgesia after oral administration; assay type: in vivo, rat; conditions: p.o.
From the text: as §3, §4
Peripheral sensory neuropathy was induced in adult rats, by administration of oxaliplatin (Tocris) at […] i.p. in saline once daily for 5 consecutive days every week for three weeks (cumulative dose 36 mg/kg) according to Cavaletti et al., 2001. Starting from day 21 after the first oxaliplatin administration, the effect of repeated oral administration of racemic unifiram or the preferred inventive composition with an enantiomeric excess of (R)-unifiram of 50% corresponding to a 3:1 (R):(S) ratio of the enantiomers on oxaliplatin-induced mechanical hyperalgesia was assessed.

O=C1CCC2CN(S(=O)(=O)c3ccccc3F)CCN12 (racemic) [R:S mixture 1:1, 2-(2-fluorobenzenesulfonyl)hexahydropyrrolo[1,2-a]pyrazin-6-one]
Effect on paclitaxel-induced mechanical allodynia (von Frey test) (paclitaxel-treated rats [1]; 1 mg/kg): marginally effective

O=C1CC[C@@H]2CN(S(=O)(=O)c3ccccc3F)CCN12 [NT-24336, 2-(2-fluorobenzenesulfonyl)hexahydropyrrolo[1,2-a]pyrazin-6-one]
Lowest dose at which MIA-induced mechanical hyperalgesia is inhibited in a statistically significant manner (P < 0.05) (MIA-treated rats; 15 min after administration): 3 mg/kg | Lowest dose at which MIA-induced mechanical hyperalgesia is inhibited in a statistically significant manner (P < 0.05) (MIA-treated rats; 30 min after administration): 3 mg/kg | Lowest dose at which MIA-induced mechanical hyperalgesia is inhibited in a statistically significant manner (P < 0.05) (MIA-treated rats; 45 min after administration): 3 mg/kg | Lowest dose at which paclitaxel-induced hyperalgesia is inhibited in a statistically significant manner (P < 0.05) (paclitaxel-treated rats [2]; 15 min after administration): 3 mg/kg | Lowest dose at which paclitaxel-induced hyperalgesia is inhibited in a statistically significant manner (P < 0.05) (paclitaxel-treated rats [2]; 30 min after administration): 3 mg/kg | Lowest dose at which paclitaxel-induced hyperalgesia is inhibited in a statistically significant manner (P < 0.05) (paclitaxel-treated rats [2]; 45 min after administration): 3 mg/kg | Lowest dose at which CCI-induced mechanical allodynia is inhibited in a statistically significant manner (P < 0.05) (CCI rats; 30 min after administration): 1 mg/kg | Lowest dose at which CCI-induced mechanical allodynia is inhibited in a statistically significant manner (P < 0.05) (CCI rats; 60 min after administration): 3 mg/kg | Lowest dose at which CCI-induced mechanical allodynia is inhibited in a statistically significant manner (P < 0.05) (CCI rats; 90 min after administration): 3 mg/kg | Lowest dose at which vincristine-induced hyperalgesia is inhibited in a statistically significant manner (P < 0.05) (vincristine-treated rats; 30 min after administration): 10 mg/kg | Lowest dose at which vincristine-induced hyperalgesia is inhibited in a statistically significant manner (P < 0.05) (vincristine-treated rats; 60 min after administration): 10 mg/kg | Lowest dose at which vincristine-induced hyperalgesia is inhibited in a statistically significant manner (P < 0.05) (vincristine-treated rats; 90 min after administration): 10 mg/kg | Lowest dose at which vincristine-induced hyperalgesia is inhibited in a statistically significant manner (P < 0.05) (vincristine-treated rats; 120 min after administration): >10 mg/kg | Lowest dose at which streptozotocin-induced diabetese-like thermal hyperalgesia is inhibited in a statistically significant manner (P < 0.05) ([3]; 30 min after administration): 30 mg/kg | Lowest dose at which streptozotocin-induced diabetese-like thermal hyperalgesia is inhibited in a statistically significant manner (P < 0.05) ([3]; 60 min after administration): 30 mg/kg | Lowest dose at which streptozotocin-induced diabetese-like thermal hyperalgesia is inhibited in a statistically significant manner (P < 0.05) ([3]; 90 min after administration): 30 mg/kg | Lowest dose at which streptozotocin-induced diabetese-like thermal hyperalgesia is inhibited in a statistically significant manner (P < 0.05) ([3]; 120 min after administration): 30 mg/kg | Lowest dose at which oxaliplatin-induced hyperalgesia is inhibited in a statistically significant manner (P < 0.05) (oxaliplatin-treated rats; 30 min after administration): 1 mg/kg | Lowest dose at which oxaliplatin-induced hyperalgesia is inhibited in a statistically significant manner (P < 0.05) (oxaliplatin-treated rats; 60 min after administration): 1 mg/kg | Lowest dose at which oxaliplatin-induced hyperalgesia is inhibited in a statistically significant manner (P < 0.05) (oxaliplatin-treated rats; 90 min after administration): 1 mg/kg | Lowest dose at which oxaliplatin-induced hyperalgesia is inhibited in a statistically significant manner (P < 0.05) (oxaliplatin-treated rats; 120 min after administration): >10 mg/kg

O=C1CCC2CN(S(=O)(=O)c3ccccc3F)CCN12 (stereo not drawn) [NT-24781, 2-(2-fluorobenzenesulfonyl)hexahydropyrrolo[1,2-a]pyrazin-6-one]
Lowest dose at which paclitaxel-induced hyperalgesia is inhibited in a statistically significant manner (P < 0.05) (paclitaxel-treated rats [2]; 15 min after administration): >3 mg/kg | Lowest dose at which paclitaxel-induced hyperalgesia is inhibited in a statistically significant manner (P < 0.05) (paclitaxel-treated rats [2]; 30 min after administration): >3 mg/kg | Lowest dose at which paclitaxel-induced hyperalgesia is inhibited in a statistically significant manner (P < 0.05) (paclitaxel-treated rats [2]; 45 min after administration): >3 mg/kg | Effect on paclitaxel-induced mechanical allodynia (von Frey test) (paclitaxel-treated rats [1]): almost inactive

O=C1CCC2CN(S(=O)(=O)c3ccccc3F)CCN12 (racemic) [R:S mixture 3:1, 2-(2-fluorobenzenesulfonyl)hexahydropyrrolo[1,2-a]pyrazin-6-one]
Effect on paclitaxel-induced mechanical allodynia (von Frey test) (paclitaxel-treated rats [1]; 1 mg/kg): the most active one

Reference: patent US20220047587A1, “SYNERGISTIC COMPOSITIONS COMPRISING R-2-(SUBSTITUTED-SULFONYL)-HEXAHYDRO-PYRROLO[1,2-A]PYRAZIN-6(2H)-ONES AND S-2-(SUBSTITUTED-SULFONYL)-HEXAHYDRO-PYRROLO[1,2-A]PYRAZIN-6(2H)-ONES IN A NON-RACEMIC RATIO” (Metys Pharmaceuticals AG, priority 2018, published 2022)
